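Grown in 96-well plates, cells were treated for 48 hours with each compound at five concentrations. Insufficient inhibition: endpoint recorded as highest concentration tested. At the TGI there is no net growth.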
Key:
Test in all cases: NCI tumour cell line growth inhibition, 48 h
P388 leukemia = tested on: P388 leukemia
P388/ADR leukemia = tested on: P388/ADR leukemia
HOP-18 NSCLC = tested on: HOP-18 NSCLC
DLD-1 colon = tested on: DLD-1 colon
786-0 renal = tested on: 786-0 renal
KM20L2 colon = tested on: KM20L2 colon
SNB-78 CNS = tested on: SNB-78 CNS

Compound | TGI (P388 leukemia) [µM] | TGI (P388/ADR leukemia) [µM] | TGI (HOP-18 NSCLC) [µM] | TGI (DLD-1 colon) [µM] | TGI (786-0 renal) [µM] | TGI (KM20L2 colon) [µM] | TGI (SNB-78 CNS) [µM]
COc1cc(C2c3cc4c(cc3[C@@H](Nc3cccc(CO)c3)C3COC(=O)[C@H]23)OCO4)cc(OC)c1O (stereo partly specified) | 0.369 | 1.86 | 17.4 | 4.56 |  |  | 
CC(CC(N)C(=O)O)C(=O)O (stereo unspecified) |  |  |  |  | > 100 |  | 
CSCC[C@@H]1C(=O)N(C)[C@H](C(C)(C)C)N1C(=O)c1ccccc1 | > 100 |  | > 100 | > 100 |  | > 100 | > 100
CC1(C)[C@@H]2CC[C@]1(C)[C@H](OC(=O)/C=C/c1ccccc1)C2 |  |  |  |  | 32.3 |  | 

From PubChem BioAssay (NCI)
